From US10441582B2 (priority 2016, dated 2019)
Values after ≈ are worked out from the molar mass of the structure shown.

Tests used:
[1] = test system: solid tumor of MKN-45 cells; assay: Solid tumor of MKN-45 cells in BALB/c nude mice, intratumoral administration; assay type: in vivo; settings: G5, 20 mg/kg intratumoral, FIG. 9
Method: After about 2 weeks, the ascites was collected and centrifuged at 2000 rpm, and the precipitate was washed twice and then stained with 0.4% […] blue, thereby obtaining 5×10^6 cells/100 μL.
In the first administration, a suspension volume of 50 μL/head was used regardless of body weight.
The medium dose used was a 2-fold dilution of the prepared injectable suspension, and the low dose used was a 4-fold dilution of the prepared injectable suspension.
The injectable suspension was dissolved by heating to a temperature of 42 to 45° C. on a water bath. Next, 20 μL of the solution was administered to the apex of the tumor by means of a 0.3 mL insulin syringe, and 10 μL of the solution was administered to each of three points of the bottom side of the tumor. Accordingly, a total of 50 μL of the solution was administered to the tumor.
On the final day of the test, the animals were biopsied and visually observed, and the mean weight of the tumors was measured.

[2] = G5, 20 mg/kg i.v., FIG. 2
From the text: Fifty 5-week-old BALB/c nude mice (produced by Central Lab Animal Inc., Korea) were purchased and acclimated for 1 week before use in the test.
The data are expressed as mean±S.D. The results were statistically analyzed by ONE-WAY ANOVA and Student's t-test methods.

MKN-45 cells = assay: MTT assay, cytotoxicity against MKN-45 cells; settings: Homo sapiens, MKN-45, 24 h, read-out: IC50 (drug concentration that resulted in 50% of cell viability)
Method: The MKN-45 cell line was subcultured with RPMI1640 medium (supplemented with L-glutamine and 10% FBS) in a 5% CO2 incubator at 37° C. for 48 hours, and was then used in the test.
The cell line prepared in (2) above was added to each well.
Then, the cells were cultured in a 5% CO2 incubator at 37° C. for 24 hours, and 50 μL of MTT reagent was added thereto at a concentration of 2 mg/mL. Then, the cells were incubated in an incubator at 37° C. for 4 hours.
The cell culture was centrifuged to remove the supernatant, and 200 μL of DMSO was added to each well to dissolve the MTT-stained precipitate, after which the OD540 value at a wavelength of 540 nm was measured with an ELISA reader.

CC(=O)O[C@H]1C(=O)[C@@]2(C)[C@H]([C@H](OC(=O)c3ccccc3)[C@]3(O)C[C@H](OC(=O)[C@H](O)[C@@H](NC(=O)c4ccccc4)c4ccccc4)C(C)=C1C3(C)C)[C@]1(OC(C)=O)CO[C@@H]1C[C@@H]2O [Paclitaxel]
State of solid tumor (photographs) ([1]; 2 weeks after administration): proliferated
Proliferation of tumor cells [1]: ≥ 5 fold
Decrease in body weight [2]: significant decrease in body weight
IC50 (MKN-45 cells): 0.1 µg/mL (≈ 0.117 µM)
